What was measured:
CYP3A4 = CYP3A4 (Homo sapiens, UniProt P08684); experiment: Two-step luminescent P450 screen of luciferin derivatives; details: result in words
luciferase = experiment: No-enzyme control: activity of luciferase towards the luciferin derivative (background luminescence); details: on a BMG luminometer; minus P450
Procedure: The reactions (Table 1) were assembled by first adding the water and 1 M BisTris solutions in individual 0.5 ml microfuge tubes, then adding the other components except for the GST #3 solution. Finally, the GST #3 (Figure 12) solution was added to the reactions, the resulting solution was mixed, and the time of addition noted. […]
The GST #3 addition was performed last and the solutions were mixed immediately after addition of GST #3. […] After mixing, the light produced by the solution was measured using a Turner TD 20/20 luminometer.
After assembly, the enzyme stock solutions were diluted 1:10 into 10 mM HEPES, pH 7.5 and the following additions were made to the reactions.
A 5 µl sample of the luciferol DMF solution was added to each of the reactions above and a timer was started upon the addition of the first luciferol/DMF solution to reaction 1. All reactions were kept at room temperature.
After incubating 5 minutes at room temperature, the light produced by these samples was measured using a Turner TD 20 luminometer.
To initiate the conversions, 5 µl of luciferol solution was added to reactions […], 6-9, and 11-15, and 10 µl of luciferol was added to reactions 5 and 10 and the tubes mixed after that addition. Immediately after luciferol addition to reaction 1, a timer was started and the time of luciferol addition to the other tubes noted. After mixing, reaction 11-15 were placed at 37°C.
After incubating 10 minutes at room temperature, the light produced by these samples was read using a Turner TD 20 luminometer (Table 18).
To initiate Step 1, 45 µl of enzyme and buffer were added to each well.
Solution A and Solution B are components of the NADPH Regeneration System (V9510, Promega Corp., Madison WI). […] Solution B contains 40 units/ml glucose-6-phosphate dehydrogenase in 5 mM citrate pH 5.5.

[1] = system: CYP3A subfamily, CYP3A4, CYP3A5 and CYP3A7; experiment: Two-step luminescent P450 screen of luciferin derivatives, selectivity for the CYP3A subfamily; type: biochemical, human; details: result in words
Procedure: (§1) P450s are Supersomes™ purchased from Discovery Labware (BD/Gentest). […] HLM is human liver microsomes.
(§2) 1X substrate concentration: 50 µM.

CYP4F12 = biological target: T1, CYP4F12 (Homo sapiens, UniProt Q9HCS2); experiment: Two-step luminescent P450 screen of luciferin derivatives; type: biochemical; details: result in words
T1 construct: purchased Discovery Labware (BD/Gentest); host or cells: insect cell expression system (membrane fractions)
T1 sequence (Q9HCS2 1-524): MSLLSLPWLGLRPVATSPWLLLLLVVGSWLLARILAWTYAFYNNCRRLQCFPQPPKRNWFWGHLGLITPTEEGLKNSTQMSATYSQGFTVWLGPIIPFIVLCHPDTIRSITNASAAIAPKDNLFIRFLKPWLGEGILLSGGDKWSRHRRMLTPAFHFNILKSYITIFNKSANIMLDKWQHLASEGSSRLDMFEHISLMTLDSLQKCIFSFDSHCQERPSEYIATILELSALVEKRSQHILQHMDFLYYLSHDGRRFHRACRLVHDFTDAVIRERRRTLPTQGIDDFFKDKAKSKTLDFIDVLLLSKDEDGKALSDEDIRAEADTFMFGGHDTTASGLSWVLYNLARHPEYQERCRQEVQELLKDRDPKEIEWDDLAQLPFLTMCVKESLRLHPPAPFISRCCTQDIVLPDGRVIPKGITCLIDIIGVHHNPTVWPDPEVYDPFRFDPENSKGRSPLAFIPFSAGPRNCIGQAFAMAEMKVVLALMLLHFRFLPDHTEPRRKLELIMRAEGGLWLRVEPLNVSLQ
Procedure: as §1, §2

CYP2D6 = biological target: T2, CYP2D6 (Homo sapiens, UniProt P10635); experiment: as above; type: biochemical; details: for P450 activity / selectivity with the derivative as substrate: result in words
T2 construct: purchased Discovery Labware (BD/Gentest); host or cells: insect cell expression system (membrane fractions)
Procedure: as §1, §2
(§3) For Figure 20, 1 or 5 picomoles of recombinant CYP2D6 or CYP2C19 membrane fractions from an insect cell expression system (SupersomesTM, Discovery Labware) were incubated at 37°C for 60 minutes with 200 µM D-luciferin 6' methyl ether (luciferin-ME) in 50 mM (CYP2C19) or 100 mM (CYP2D6) KPO4 (pH 7.4) with an NADPH regenerating system (as described above) in a volume of 50 µl. […] For Figure 20, the panel of human P450s was screened as described above.

CYP1A1 = biological target: T3, CYP1A1 (Homo sapiens, UniProt P04798); experiment: as above; details: 50 µM substrate, 1 pmole P450, 37°C 30 minutes; result in words
T3 sequence (P04798 1-512): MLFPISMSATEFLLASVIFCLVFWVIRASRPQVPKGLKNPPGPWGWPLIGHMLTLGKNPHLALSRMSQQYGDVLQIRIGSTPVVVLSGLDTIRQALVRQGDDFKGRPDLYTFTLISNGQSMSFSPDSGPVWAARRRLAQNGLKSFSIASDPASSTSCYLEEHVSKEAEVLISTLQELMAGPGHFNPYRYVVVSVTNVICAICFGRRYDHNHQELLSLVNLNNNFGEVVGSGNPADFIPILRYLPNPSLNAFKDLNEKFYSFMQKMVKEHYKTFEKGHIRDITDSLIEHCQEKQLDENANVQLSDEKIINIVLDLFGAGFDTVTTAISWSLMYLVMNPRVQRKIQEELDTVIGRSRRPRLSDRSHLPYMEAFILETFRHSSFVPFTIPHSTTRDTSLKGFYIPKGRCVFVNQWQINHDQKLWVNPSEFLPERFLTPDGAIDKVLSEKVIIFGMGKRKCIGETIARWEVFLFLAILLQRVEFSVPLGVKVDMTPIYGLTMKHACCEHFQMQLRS

CYP1A2 = biological target: T4, CYP1A2 (Homo sapiens, UniProt P05177); experiment: as above; type: biochemical; details: 50 µM substrate, 1 pmole P450; result in words
T4 construct: purchased Discovery Labware (BD/Gentest); host or cells: insect cell expression system (membrane fractions)
T4 sequence (P05177 2-516 limits assumed): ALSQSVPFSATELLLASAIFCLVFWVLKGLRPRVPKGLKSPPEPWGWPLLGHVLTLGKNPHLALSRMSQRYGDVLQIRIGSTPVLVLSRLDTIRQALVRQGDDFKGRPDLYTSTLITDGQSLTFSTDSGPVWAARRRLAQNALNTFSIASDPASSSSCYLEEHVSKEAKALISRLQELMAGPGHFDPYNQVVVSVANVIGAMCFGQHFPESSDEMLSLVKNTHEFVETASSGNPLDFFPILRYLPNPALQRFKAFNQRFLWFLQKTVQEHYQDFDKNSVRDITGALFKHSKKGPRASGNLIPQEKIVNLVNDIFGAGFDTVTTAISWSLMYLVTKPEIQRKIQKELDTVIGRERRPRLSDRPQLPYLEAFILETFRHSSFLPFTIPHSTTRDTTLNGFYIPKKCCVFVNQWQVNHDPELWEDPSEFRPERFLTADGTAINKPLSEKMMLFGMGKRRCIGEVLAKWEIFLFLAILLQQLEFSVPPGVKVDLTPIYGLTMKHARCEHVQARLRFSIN
Procedure: as §1, §2

CYP2C19 = biological target: T5, CYP2C19 (Homo sapiens, UniProt P33261); experiment: as above; type: biochemical; details: for P450 activity / selectivity with the derivative as substrate: result in words
T5 construct: purchased Discovery Labware (BD/Gentest); host or cells: insect cell expression system (membrane fractions)
Procedure: as §1, §2, §3

CYP4A11 = biological target: T6, CYP4A11 (Homo sapiens, UniProt Q02928); experiment: as above; type: biochemical; details: result in words
T6 construct: purchased Discovery Labware (BD/Gentest); host or cells: insect cell expression system (membrane fractions)
T6 sequence (Q02928 5-519): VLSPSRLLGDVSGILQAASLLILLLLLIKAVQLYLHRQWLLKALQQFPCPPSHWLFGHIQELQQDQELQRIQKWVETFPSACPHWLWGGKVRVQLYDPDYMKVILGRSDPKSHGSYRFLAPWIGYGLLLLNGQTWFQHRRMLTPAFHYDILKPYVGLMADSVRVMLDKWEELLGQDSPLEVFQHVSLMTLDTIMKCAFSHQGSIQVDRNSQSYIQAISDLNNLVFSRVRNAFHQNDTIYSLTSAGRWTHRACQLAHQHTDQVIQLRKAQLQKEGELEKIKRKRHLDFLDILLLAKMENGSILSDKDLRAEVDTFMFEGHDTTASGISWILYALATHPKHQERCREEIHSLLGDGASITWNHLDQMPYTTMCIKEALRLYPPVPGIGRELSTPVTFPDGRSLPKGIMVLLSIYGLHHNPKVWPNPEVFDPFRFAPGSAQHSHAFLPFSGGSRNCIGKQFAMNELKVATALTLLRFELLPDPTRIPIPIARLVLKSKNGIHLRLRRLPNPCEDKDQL
Procedure: as §1, §2

T5 sequence (P33261 whole entry): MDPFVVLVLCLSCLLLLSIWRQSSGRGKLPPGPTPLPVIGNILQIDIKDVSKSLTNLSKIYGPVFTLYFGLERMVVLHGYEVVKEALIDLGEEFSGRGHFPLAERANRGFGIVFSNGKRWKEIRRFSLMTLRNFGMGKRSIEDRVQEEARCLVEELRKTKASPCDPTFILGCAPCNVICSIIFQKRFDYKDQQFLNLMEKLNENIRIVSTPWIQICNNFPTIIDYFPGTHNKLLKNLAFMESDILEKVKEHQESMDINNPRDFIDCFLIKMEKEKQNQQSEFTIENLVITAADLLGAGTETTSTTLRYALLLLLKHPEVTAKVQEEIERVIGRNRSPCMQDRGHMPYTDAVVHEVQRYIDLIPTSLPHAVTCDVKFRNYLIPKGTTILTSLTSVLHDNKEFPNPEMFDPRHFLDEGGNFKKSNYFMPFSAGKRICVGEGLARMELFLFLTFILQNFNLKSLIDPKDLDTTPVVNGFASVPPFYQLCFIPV
T2 sequence (P10635 whole entry): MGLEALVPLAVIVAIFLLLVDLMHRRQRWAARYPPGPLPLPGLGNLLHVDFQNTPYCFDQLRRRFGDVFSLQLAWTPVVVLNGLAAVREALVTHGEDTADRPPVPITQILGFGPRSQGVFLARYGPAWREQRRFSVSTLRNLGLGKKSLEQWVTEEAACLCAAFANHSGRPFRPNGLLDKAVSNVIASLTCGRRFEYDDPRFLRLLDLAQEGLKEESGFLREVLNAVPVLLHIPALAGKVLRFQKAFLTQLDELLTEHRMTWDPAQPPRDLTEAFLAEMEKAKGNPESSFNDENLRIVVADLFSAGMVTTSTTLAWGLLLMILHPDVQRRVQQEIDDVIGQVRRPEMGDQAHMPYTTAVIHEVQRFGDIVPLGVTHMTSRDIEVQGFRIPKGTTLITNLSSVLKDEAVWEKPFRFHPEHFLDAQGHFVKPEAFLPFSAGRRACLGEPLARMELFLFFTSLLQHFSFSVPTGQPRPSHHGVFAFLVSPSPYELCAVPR
Sequence of CYP3A4 (P08684 2-503 limits assumed): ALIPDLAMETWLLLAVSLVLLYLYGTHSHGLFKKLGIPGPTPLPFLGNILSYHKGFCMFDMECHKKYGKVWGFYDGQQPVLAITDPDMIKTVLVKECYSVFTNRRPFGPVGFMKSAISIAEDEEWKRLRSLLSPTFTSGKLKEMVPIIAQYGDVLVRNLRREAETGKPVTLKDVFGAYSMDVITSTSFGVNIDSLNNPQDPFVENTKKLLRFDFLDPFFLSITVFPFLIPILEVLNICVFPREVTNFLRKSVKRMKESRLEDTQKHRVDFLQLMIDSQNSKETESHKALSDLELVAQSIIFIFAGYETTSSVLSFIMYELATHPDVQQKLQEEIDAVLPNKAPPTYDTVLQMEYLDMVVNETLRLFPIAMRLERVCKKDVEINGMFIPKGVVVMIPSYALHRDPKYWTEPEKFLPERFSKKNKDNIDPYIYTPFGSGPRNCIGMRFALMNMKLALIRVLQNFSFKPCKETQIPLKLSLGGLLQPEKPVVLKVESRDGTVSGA

O=C(O)[C@H]1CSC(c2nc3ccc(OCc4cccc(CN5CCN(c6ccccc6)CC5)c4)cc3s2)=N1 [LucPPXE, Luciferin 3-(4-phenylpiperazin-1-yl)methylbenzyl ether]
P450 activity / selectivity with the derivative as substrate (CYP3A4): substantial activity | competition at the substrate binding sites on CYP3A4 (CYP3A4): competitive at 2 of the 3 substrate binding sites | sensitivity of the reaction with 3A4 to DMSO (CYP3A4): insensitive to DMSO at commonly used concentrations | background luminescence (luciferase): about 2200 RLU | selectivity for three members of the CYP3A subfamily [1]: selective | P450 activity / cross reactivity with the derivative as substrate (CYP4F12; listed as 6'(3-((4-phenylpipenzin-1-yl))methyl)benzyloxy) luciferin): did not cross react

COc1ccc2nc(C3=NC(C(=O)OCc4cccnc4)CS3)sc2c1 (centres unmarked) [m-picolinyl ester of luciferin methyl ether]
signal when the esterase was not added, relative to the plus esterase signal (CYP2D6; purified recombinant CYP2D6 substantially free of carboxylesterases, 2 step assay): less than 10% | P450 activity / selectivity with the derivative as substrate (CYP2D6): showed a preference | P450 activity / selectivity with the derivative as substrate (CYP1A1): showed a preference | P450 activity / selectivity with the derivative as substrate (CYP1A2): showed a preference

COC(=O)[C@H]1CSC(c2nc3ccccc3s2)=N1 [carboxyl methyl ester of deoxyluciferin]
P450 activity / selectivity with the derivative as substrate (CYP2C19): substantial activity with CYP2C 19 and strong selectivity

O=C(OCc1cccnc1)[C@H]1CSC(c2nc3ccccc3s2)=N1 [carboxyl picolinyl ester of luciferin-H, m-picolinyl ester of luciferin-H]
signal when the esterase was not added, relative to the plus esterase signal (CYP2C19; purified recombinant CYP2C19 substantially free of carboxylesterases, 2 step assay): less than 10% | P450 activity / selectivity with the derivative as substrate (CYP2C19): showed preference | P450 activity / selectivity with the derivative as substrate (CYP1A1): showed preference | P450 activity / selectivity with the derivative as substrate (CYP1A2): showed preference

O=C(O)[C@H]1CSC(c2nc3ccc(OCc4c(F)c(F)c(F)c(F)c4F)cc3s2)=N1 [6'-(2,3,4,5,6-pentafluorobenzyloxy)-luciferin]
P450 activity / selectivity with the derivative as substrate (CYP3A4): substantial activity | background luminescence (luciferase): about 900 RLU | selectivity for three members of the CYP3A subfamily [1]: selective | P450 activity / cross reactivity with the derivative as substrate (CYP4F12): did not show substantial cross reactivity

COC(=O)[C@H]1CSC(c2nc3ccc(OC)cc3s2)=N1 [carboxyl ester of luciferin-ME, carboxyl methyl ester of luciferin-ME]
P450 activity / selectivity with the derivative as substrate (CYP2C19): reacted strongly | P450 activity / selectivity with the derivative as substrate (CYP2D6): substantially increased

2-(7-methyoxy-quinoxalin-2-yl)-4-5-dihydro-thiazole-4-carboxylic acid [quinoxalylluciferin 6-methyl ether]
P450 activity / selectivity with the derivative as substrate (CYP4A11): substrate

O=C(O)[C@H]1CSC(c2nc3ccc(OCc4c(F)c(F)c(F)c(CN5CCN(c6ccccc6)CC5)c4F)cc3s2)=N1 [LucPPXE4F, 6'-(2,3,4,6-tetrafluoro-5-((4-phenylpiperizin-1-yl)methyl)benzyloxy)-luciferin]
P450 activity / selectivity with the derivative as substrate (CYP3A4): substantial activity | selectivity for three members of the CYP3A subfamily [1]: selective | P450 activity / cross reactivity with the derivative as substrate (CYP4F12): did not show substantial cross reactivity

COc1ccc2cc(C3=N[C@@H](C(=O)O)CS3)ccc2c1 [Naphthylluciferin 6-methyl ether, naphthyl luciferin methyl ether]
P450 activity / selectivity with the derivative as substrate (CYP4A11): substrate

Reference: EP1935986B1, “Luminogenic and fluorogenic compounds and methods to detect molecules or conditions” (priority 2005, dated 2006)
